Settings: rat, in vivo
Method: Female Sprague-Dawley rats (Harlan Sprague-Dawley, Indianapolis, Ind.), weighing 250-300 grams each were given free access to food and water before the experiment. The animals were anesthetized with ketamine (80 mg/kg) and xylazine (10 mg/kg). Brain temperatures were monitored using a rectal thermometer. The animals' body temperature was maintained at 37° C. by using a water-jacketed heating pad. Brain temperature was monitored for 1 hour prior to injury to 6 hours following injury and was recorded at 30-minute intervals.
Young adult female Sprague-Dawley rats received a spinal cord contusion using the Precision Systems and Instrumentation, LLC (Fairfax Station, Va.) pneumatic impactor. Prior to surgery, rats were assigned to different treatment groups based on a randomized block design so that on any given surgery day all treatment groups were included. The rats were anesthetized with ketamine (80 mg/.kg) and xylazine (10 mg/kg) before laminectomy was performed at the 10th thoracic vertebra (T10). The vertebral column was stabilized with angled clamps on the upper thoracic (T8) and lumber (T11) levels and the impactor with a tip diameter of 2 mm was delivered at approximately 150 kdynes onto the exposed, intact dura overlying the dorsal spinal cord. The impactor was immediately removed, the wound irrigated with saline and the muscle and skin openings sutured together.
Two hours following injury, 0.8% magnesium in 3350 formulations was administered by intravenous infusion of 5 mL/kg over a 30-min period. For repeated infusions, an interval of 6 hours was used between infusions and the right jugular vein was cannulated with PE 50 tubing. The cannula was secured through the back of the neck and capped between infusion periods. Animals were re-anesthetized for re-administration of compounds. The contents of the infusion vials were blinded to the investigators performing both the infusions and the analyses.
At various time points after infusion, cerebrospinal fluid and/or blood samples and/or spinal cord tissue with and without the injury site were collected. […]
Serum and CSF samples were analyzed for magnesium concentrations by the Clinical Pathology Department at WIL Research Laboratories, LLC, 1407 George Road, Ashland, Ohio 44805. […] The formation of the chromophore (and consequently a reduction of the xylidyl blue) is proportional to the concentration of Mg^2+, measured by the instrument as a decrease in the xylidyl blue absorbance (600 nm). […]
Tissue and plasma concentrations of PEG-3350 in rat plasma were measured using a validated high performance liquid chromatograpy tandem mass spectrometry (HPLC/MS/MS) method in positive electrospray ionization mode. […] The samples were analyzed with an HPLC/MS/MS assay using a Thermo Hypersil ODS column. […]

Compound	time for Magnesium serum level to decrease to baseline level post-infusion [min]	time at which Cmax of Magnesium serum level was observed (iv)	time for PEG plasma level to decrease to baseline level post-infusion [min]	time at which Cmax of PEG plasma level was observed (iv)
[Mg+2] [Magnesium, magnesium]	30 to 60	at the end of the infusion	–	–
polyethylene glycol [PEG]	–	–	30 to 60	at the end of the infusion
